Reference: PMC8328489, “Automated Synthesis and Initial Evaluation of (4′-Amino-5′,8′-difluoro-1′H-spiro[piperidine-4,2′-quinazolin]-1-yl)(4-[^18F]fluorophenyl)methanone for PET/MR Imaging of Inducible Nitric Oxide Synthase” (Molecular Imaging, 2021)
“And” between values parts separate entries of the source, which are not always exact repeats. Equal values may be shown once.

Assays:
[1] = Log P measurement (1-octanol/phosphate buffer, UV); format: physicochemical; settings: 1-octanol / 0.02 M phosphate buffer; 1-octanol / phosphate buffer pH 7.4
Protocol: The partition coefficient of FBAT, determined between 1-octanol and 0.02 M phosphate buffer at pH 7.4, was measured by UV spectrophotometer (SPARK 10 M from Tecan) at wavelength 230 nm.

[2] = tested on: murine microglial BV2 cells; experiment: In vitro [^18F]FBAT uptake assay; format: cell-based
Protocol: BV2 cells were cultured as described above, washed three times with fresh medium, pretreated with a selective iNOS inhibitor, aminoguanidine (AMG), (0, 1, or 0.1 mM) for 1 h, and then treated with cell culture media containing LPS and the inhibitor. At the indicated time points, the cells were washed thrice with fresh cell culture media, then incubated in fresh cell culture media continuing the radiotracer [^18F]FBAT at 0.37 MBq/mL for 15, 30, or 60 min, harvested by gentle scraping, and pelleted by centrifugation at 1500 g for 2 min. The weight of the cell pellet and 0.1 mL of the radioactive supernatant was determined. A Packard 5500 gamma counter (PerkinElmer, Billerica, MA, USA) was used to quantify radioactivity as cpm/g cells or cpm/mL media, respectively. Cell-to-medium radioactivity concentration ratios were calculated and plotted over time to evaluate the kinetics of accumulation of the radiotracer.
iNOS is the enzyme responsible for NO generation in BV2 cells; therefore, accumulation of [^18F]FBAT in BV2 cells before or after iNOS inhibitor versus NO production was also assessed.

iNOS = molecular target: T1, iNOS (Mus musculus, UniProt P29477); experiment: In vivo brain PET/MR imaging of LPS-induced iNOS expression (SUV, SUR, AUC) incl. aminoguanidine blocking; parameters: species or system C57BL/6 mice
T1 construct: tracer to detect iNOS expression in mice injected with lipopolysaccharide (LPS) to induce brain inflammation; from tissue; host or cells: brain of living C57BL/6 mice (LPS-induced); fixed brain sections for IHC
Protocol: For the imaging experiments, twelve C57BL/6 mice were injected i.p. with 0.9% NaCl, eighteen mice were injected i.p. with 0.1 mL of LPS in saline (5 mg/kg), and six mice were injected i.p. with aminoguanidine (Sigma-Aldrich) 30 min prior to 5 mg/kg LPS. In vivo imaging was performed 3 h or 24 h after injection of LPS; then, the mice were immediately humanely euthanized and the brains were removed for immunostaining.
Mice (n = 30) were anesthetized with 2% isoflurane (in oxygen) and injected with [^18F]FBAT (11.1 MBq; 0.3 mCi) via the tail vein. Dynamic PET images were obtained in fully three-dimensional list mode for 30 min using a small animal SuperArgus 2r PET system (SEDECAL, Madrid, Spain) or 7T PETMR Inline (Bruker, Rheinstetten, Germany; energy window, 350-650 keV; timing window, 6 ns). Images were acquired every 10 s for 12 images, 60 s for three images, 300 s for three images, or 600 s for […]. The anatomical structure of the brain was imaged using T2 MRI. The MRI sequences included 0.5 mm thick T2 Turbo RARE high-resolution images (TR = 3000 ms, TE, 46 ms, matrix, 512 × 256, average, 40, slice number, 30, field of view, 20 × 10 mm).
After determining the optimal imaging time point for [^18F]FBAT, we performed a blocking study using a selective iNOS inhibitor to assess the specificity of the tracer for iNOS. Separate 7T PET/MR studies with [^18F]FBAT were performed for mice (n = 6) administered a bolus of aminoguanidine (50 mg/kg i.p.) 30 min prior to administration of [^18F]FBAT. The time course of [^18F]FBAT radioactivity in the brain after administration of the iNOS inhibitor was assessed and compared to that of the mice in the LPS 3 h group.
Images were reconstructed by the Fourier rebinning algorithm and two-dimensional filtered back projection using a ramp filter with a cutoff at Nyquist. The regional radioactivity concentration (kBq/cc) of [^18F]FBAT was estimated from the mean pixel values within the region of interest (ROI) corresponding to MR images of various organs and regions of the brain. ROI for carotid artery, heart muscle, lung, liver, spleen, and kidney were defined and time activity curves (TACs) generated. TACs for whole brain, cortex, cerebellum, and brainstem were also determined as described above.
The concentration of radioactivity (kBq/cc, μCi/cc) was converted to standardized uptake value (SUV), and the mean and standard deviation (SD) of radiotracer accumulation values were calculated for different organs and regions of the brain. Data were analyzed with PMOD 4.0 software (PMOD Technologies Ltd., Zurich, Switzerland).

[3] = LPS 5 mg/kg, 3 h, 30 min post i.v. tracer
[4] = LPS 5 mg/kg, 24 h, 30 min post i.v. tracer
[5] = LPS 3 h + aminoguanidine 50 mg/kg pretreatment
[6] = control mice, 30 min post i.v. tracer

logP [1]: 1.4
SUV, brainstem (iNOS; [3]): 0.98 ± 0.09 SUV and 0.976 ± 0.244^∗ SUV
SUV, cerebellum (iNOS; [3]): 0.60 ± 0.03 SUV and 0.600 ± 0.066^∗ SUV
SUV, cortex (iNOS; [3]): 0.90 ± 0.07 SUV and 0.904 ± 0.251^∗ SUV
SUV, brainstem (iNOS; [4]): 0.67 ± 0.07 SUV and 0.671 ± 0.148 SUV
SUV, cerebellum (iNOS; [4]): 0.54 ± 0.02 SUV and 0.542 ± 0.052 SUV
SUV, cortex (iNOS; [4]): 0.62 ± 0.02 SUV and 0.620 ± 0.041 SUV
SUV, whole brain (iNOS; [4]): 0.90 ± 0.13 SUV and 0.900 ± 0.270 SUV
SUV, brainstem (iNOS; [5]): 0.35 ± 0.10 SUV and 0.350 ± 0.055 SUV
SUV, cerebellum (iNOS; [5]): 0.31 ± 0.09 SUV and 0.310 ± 0.037 SUV
SUV, cortex (iNOS; [5]): 0.32 ± 0.09 SUV and 0.320 ± 0.063 SUV
SUV, whole brain (iNOS; [5]): 0.31 ± 0.08 SUV and 0.312 ± 0.055 SUV
SUR (SUVLPS to SUVcon), brainstem (iNOS; LPS 24 h): 1.273 ± 0.163
SUR (SUVLPS to SUVcon), cerebellum (iNOS; LPS 24 h): 1.233 ± 0.112
SUR (SUVLPS to SUVcon), cortex (iNOS; LPS 24 h): 0.970 ± 0.303
SUR (SUVLPS to SUVcon), whole brain (iNOS; LPS 24 h): 1.351 ± 0.451
SUR (SUV ratio to control), brainstem (iNOS; control mice): 1.000
SUR (SUV ratio to control), cerebellum (iNOS; control mice): 1.000
SUR (SUV ratio to control), cortex (iNOS; control mice): 1.000
SUR (SUV ratio to control), whole brain (iNOS; control mice): 1.000
SUV, brainstem (iNOS; [6]): 0.540 ± 0.153 SUV
SUV, cerebellum (iNOS; [6]): 0.448 ± 0.115 SUV
SUV, cortex (iNOS; [6]): 0.604 ± 0.150 SUV
SUV, whole brain (iNOS; [6]): 0.709 ± 0.200 SUV
AUC0-30min, 3 h LPS group vs control group (iNOS; whole brain, average): 1.9 ± 0.21 fold
Structure (SMILES): NC1=NC2(CCN(C(=O)c3ccc([18F])cc3)CC2)Nc2c(F)ccc(F)c21 [[^18F]FBAT, (4′-amino-5′,8′-difluoro-1′H-spiro[piperidine-4,2′-quinazolin]-1-yl)(4-[^18F]fluorophenyl)methanone]
[^18F]FBAT accumulation, LPS-induced vs control BV2 cells ([2]; 60 min): more than 1.7 fold
cells-per-medium concentration ratio at plateau ([2]; LPS-induced BV2 cells, after 1 h): 180–200
cells-per-medium concentration ratio at plateau ([2]; control BV2 cells): ~100
SUV, whole brain (iNOS; [3]): 1.43 ± 0.11 SUV and 1.428 ± 0.410^∗∗∗ SUV
